According to the supplement of paper PMC10307832:

Columns and labels:
Assay in all cases: relative viability (nuclei count vs DMSO), 5 days (fraction); higher = more cells survive
[1] = compound: Cn1cnc2c(F)c(Nc3ccc(Br)cc3Cl)c(C(=O)NOCCO)cc21 [Selumetinib] + NC(=O)Nc1cc(-c2cccc(F)c2)sc1C(=O)N[C@H]1CCCNC1 [AZD7762] (partner 0.2 µM)
How it was run: (§1)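 Medians of duplicate plates are given as relative viability. That measure is the nuclei count in treated wells divided by the count in vehicle wells. Counts were taken on 4× images of lung cancer cell lines in 1536-well plates, 5 days after pin-tool dosing the day after seeding with one drug alone or a fixed anchor-drug dose plus five library-drug doses (not always all listed) in √10 steps.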

[2] = compound: CC1(C)CCC(CN2CCN(c3ccc(C(=O)NS(=O)(=O)c4ccc(NCC5CCOCC5)c([N+](=O)[O-])c4)c(Oc4cnc5[nH]ccc5c4)c3)CC2)=C(c2ccc(Cl)cc2)C1 [Venetoclax] + C[C@@H](Oc1cc(-c2cnn(C3CCNCC3)c2)cnc1N)c1c(Cl)ccc(F)c1Cl [Crizotinib] (partner 1 µM)
How it was run: as §1

[3] = compound: CC1(C)CCC(CN2CCN(c3ccc(C(=O)NS(=O)(=O)c4ccc(NCC5CCOCC5)c([N+](=O)[O-])c4)c(Oc4cnc5[nH]ccc5c4)c3)CC2)=C(c2ccc(Cl)cc2)C1 [Venetoclax] + CC(C)C[C@H](NC(=O)[C@H](Cc1ccccc1)NC(=O)c1cnccn1)B(O)O [Bortezomib] (partner 0.002 µM)
How it was run: as §1

[4] = compound: Cn1cnc2c(F)c(Nc3ccc(Br)cc3Cl)c(C(=O)NOCCO)cc21 [Selumetinib] + CC(C)C[C@H](NC(=O)[C@H](Cc1ccccc1)NC(=O)c1cnccn1)B(O)O [Bortezomib] (partner 0.002 µM)
How it was run: as §1

| Cell Line | relative viability ([1]; first compound 0.02 µM) | relative viability ([1]; first compound 0.06325 µM) | relative viability ([1]; first compound 0.2 µM) | relative viability ([1]; first compound 0.6325 µM) | relative viability ([2]; first compound 0.01 µM) | relative viability ([2]; first compound 0.03162 µM) | relative viability ([2]; first compound 0.1 µM) | relative viability ([2]; first compound 0.3162 µM) | relative viability ([2]; first compound 1 µM) | relative viability ([3]; first compound 0.03162 µM) | relative viability ([3]; first compound 0.1 µM) | relative viability ([3]; first compound 0.3162 µM) | relative viability ([3]; first compound 1 µM) | relative viability ([4]; first compound 0.02 µM) | relative viability ([4]; first compound 0.06325 µM) | relative viability ([4]; first compound 0.2 µM) | relative viability ([4]; first compound 0.6325 µM) | relative viability ([3]; first compound 0.01 µM) |
| --- | --- | --- | --- | --- | --- | --- | --- | --- | --- | --- | --- | --- | --- | --- | --- | --- | --- | --- |
| NCI-H2342 | 0.551 | 0.436 | 0.474 | 0.568 | – | – | – | – | – | – | – | – | – | – | – | – | – | – |
| SK-MES-1 | – | – | – | – | 1.01 | 1.08 | 1.05 | 1.01 | 0.843 | – | – | – | – | – | – | – | – | – |
| LCLC-97TM1 | 0.244 | 0.179 | 0.219 | 0.136 | – | 0.306 | 0.342 | 0.301 | 0.312 | 0.99 | 0.609 | 1.02 | 0.403 | 0.522 | 0.379 | 0.294 | 0.157 | – |
| HCC-44 | 1.07 | 1.08 | 1.02 | 1.16 | 0.748 | 0.852 | 0.83 | 0.778 | 0.762 | 0.93 | 0.948 | 0.829 | 0.904 | 0.993 | 0.882 | 0.945 | 0.971 | 0.85 |
| 201T | 0.602 | 0.615 | 0.554 | 0.6 | 1.01 | 0.995 | 0.989 | 0.948 | 1.05 | 1.03 | 1.11 | 1.09 | 1.06 | 1.11 | 1 | 1.01 | 0.994 | 1.11 |
| HOP-62 | 0.591 | 0.542 | 0.5 | 0.241 | 0.896 | 0.867 | 0.79 | 1.1 | 0.83 | 1.17 | 0.746 | 0.665 | 0.625 | 1.06 | 0.779 | 0.496 | 0.475 | 0.886 |
| NCI-H661 | – | – | – | – | 0.987 | 1.09 | 1.12 | – | 1.05 | 0.762 | 0.717 | 0.799 | 0.646 | 0.751 | 0.847 | 0.722 | 0.575 | 0.722 |
| NCI-H2087 | 1.1 | 0.993 | 1.16 | 0.525 | 0.931 | 0.805 | 1.11 | 1.03 | 0.863 | 0.766 | 1 | 0.83 | 0.753 | 0.626 | 0.542 | 0.456 | 0.351 | 0.808 |
| NCI-H647 | 0.466 | 0.441 | 0.366 | 0.271 | 0.803 | 1.35 | – | 0.974 | 0.722 | 1.2 | – | 0.944 | 1.02 | 0.96 | 0.946 | 0.901 | 0.73 | 1.08 |
| SW 1573 | – | – | – | – | 0.81 | 0.808 | 0.752 | 0.823 | 0.732 | 1.06 | 1.02 | 1.18 | 0.997 | 1.01 | 0.86 | 0.802 | 0.932 | 0.983 |
| A-427 | 0.7 | 0.613 | 0.628 | 0.618 | 0.584 | 1.09 | 0.873 | 0.924 | 1 | 0.988 | 0.982 | 1.08 | 1.06 | 1.06 | 0.978 | 1.05 | 0.959 | 0.983 |
